# Data reported in US11564924B2, “Pharmaceutical composition formed by combining pyridoxamine compound and thiamine compound” (RENASCIENCE CO., LTD., priority 2014, dated 2023).
# Tests used:
# Format in all cases: in vivo, human
# schizophrenia patients = assay: Total PANSS score in schizophrenia patients given the pyridoxamine compound; conditions: for Change from baseline in total PANSS score, Maximum / Change from baseline in total PANSS score, Median / Change from baseline in total PANSS score, Minimum / Change from baseline in total PANSS score, Mean change: FAS; for Change from baseline in total PANSS score, Mean change: 1200-2400 mg per day oral
# Description: The target subjects (subjects) of this test (administration of a pyridoxamine compound; hereinafter, this is also referred to as “drug administration”) were patients who were diagnosed with schizophrenia and met all of the following conditions (1) to (3):
# (§1) Drug administration was initiated for nine subjects from whom consent was obtained. The observation period was defined as the period from the day on which consent was obtained (Day −14) to the day 2 weeks after the day of consent (Day 0), and the initial day of drug administration was defined as Day 1. The data of Day 1 is data immediately before the start of administration of the pyridoxamine compound. The drug administration period was defined as the 24-week period from the start of drug administration (Day 1 to Day 169).
# In the drug administration, pyridoxamine dihydrochloride was used as the pyridoxamine compound and orally administered in an amount of 1200 mg, 1800 mg, or 2400 mg per day (administered three times a day, morning, noon, and before bedtime, in an amount of 400 mg, 600 mg, or 800 mg each time). In the drug administration period, the dose was increased or decreased within the above range according to the condition of each patient.
# The effect of administration of the pyridoxamine compound (drug administration) was evaluated according to the Positive and Negative Syndrome Scale (PANSS) score and the concentration of pentosidine in blood of the schizophrenia patients.
# The PANSS score was determined by SCI-PANSS, which uses a structured interview, according to the Positive and Negative Syndrome Scale (PANSS) manual (translated by Hiroshi Yamada, Kanji Masui, and Hirotsugu Kikumoto; Tokyo: Seiwa Shoten Co., Ltd., 1991). An interview for evaluation was conducted for 30 evaluation items. Each item was scored on a scale of 1 to 7. The sum of the scores was calculated, and the difference between the PANSS score on Day 1 and the PANSS score on each test day was determined. […] The subjects were prohibited from taking hypnotic drugs or antianxiety drugs within 4 hours before PANSS evaluation.
# [1] = Blood kinetics of pyridoxamine compound in people with reduced renal function; conditions: 150 mg pyridoxamine dihydrochloride oral
# Description: As described in Experiment Example 1 above, administration of a pyridoxamine compound increases not only the blood pyridoxamine concentration, but also the blood pyridoxal concentration. Rather, in blood, the pyridoxal concentration was higher than the pyridoxamine concentration. Thus, changes in the serum concentrations of pyridoxamine, pyridoxal, pyridoxine, and 4-pyridoxic acid after administration of a pyridoxamine compound were observed over time.
# More specifically, 150 mg of pyridoxamine dihydrochloride was orally administered to each of six people with reduced renal function (subjects) (average age: 56 years old, average body weight: 67 kg). Blood was collected 0.5, 1, 1.5, 2, 2.5, 3, 4, 5, 6, 8, 10, and 12 hours after the administration, and the serums were collected. Measurement of the serum concentrations of pyridoxamine, pyridoxal, pyridoxine, and 4-pyridoxic acid was outsourced to Shin Nippon Biomedical Laboratories, Ltd.
# pentosidine = assay: Plasma pentosidine concentration in schizophrenia patients (HPLC); conditions: Day 169 vs Day 1; nine subjects
# Description: as §1, with “169). […]” for “169).”
# In the morning […], on the initial day of drug administration (Day 1), and on Day 15, Day 29, Day 85, and Day 169 after the start of drug administration, blood was drawn from the nine subjects above before administration of the drug. […] The plasma pentosidine concentration was measured according to the method described below. […]
# The samples prepared as described above were diluted 10-fold with Milli-Q water (diluted samples). […] The diluted samples and the diluted pentosidine standard were subjected to HPLC (HPLC apparatus produced by Shimadzu Science) under the following conditions, and analysis of pentosidine was performed with a fluorescence measuring device (SLC-10Avp; equipped with UV and fluorescence detectors). […]
compound,measurement,setting,value
Cc1ncc(CO)c(CN)c1O.Cl.Cl [pyridoxamine dihydrochloride],"Change from baseline in total PANSS score, Maximum",schizophrenia patients; Day 15 (2 w),12
same,"Change from baseline in total PANSS score, Median",schizophrenia patients; Day 15 (2 w),3.0
same,"Change from baseline in total PANSS score, Minimum",schizophrenia patients; Day 15 (2 w),−44
same,"Change from baseline in total PANSS score, Mean change",schizophrenia patients; Day 15 (2 w),−3.7
same,"Change from baseline in total PANSS score, Maximum",schizophrenia patients; Day 29 (4 w),10
same,"Change from baseline in total PANSS score, Median",schizophrenia patients; Day 29 (4 w),1.0
same,"Change from baseline in total PANSS score, Minimum",schizophrenia patients; Day 29 (4 w),−49
same,"Change from baseline in total PANSS score, Mean change",schizophrenia patients; Day 29 (4 w),−4.4
same,"Change from baseline in total PANSS score, Maximum",schizophrenia patients; Day 57 (8 w),13
same,"Change from baseline in total PANSS score, Median",schizophrenia patients; Day 57 (8 w),1.0
same,"Change from baseline in total PANSS score, Minimum",schizophrenia patients; Day 57 (8 w),−58
same,"Change from baseline in total PANSS score, Mean change",schizophrenia patients; Day 57 (8 w),−5.0
same,"Change from baseline in total PANSS score, Maximum",schizophrenia patients; Day 85 (12 w),21
same,"Change from baseline in total PANSS score, Median",schizophrenia patients; Day 85 (12 w),−3.0
same,"Change from baseline in total PANSS score, Minimum",schizophrenia patients; Day 85 (12 w),−65
same,"Change from baseline in total PANSS score, Mean change",schizophrenia patients; Day 85 (12 w),−7.3
same,"Change from baseline in total PANSS score, Maximum",schizophrenia patients; Day 113 (16 w),8
same,"Change from baseline in total PANSS score, Median",schizophrenia patients; Day 113 (16 w),−5.0
same,"Change from baseline in total PANSS score, Minimum",schizophrenia patients; Day 113 (16 w),−69
same,"Change from baseline in total PANSS score, Mean change",schizophrenia patients; Day 113 (16 w),−12.2
same,"Change from baseline in total PANSS score, Maximum",schizophrenia patients; Day 141 (20 w),17
same,"Change from baseline in total PANSS score, Median",schizophrenia patients; Day 141 (20 w),−1.5
same,"Change from baseline in total PANSS score, Minimum",schizophrenia patients; Day 141 (20 w),−64
same,"Change from baseline in total PANSS score, Mean change",schizophrenia patients; Day 141 (20 w),−9.6
same,"Change from baseline in total PANSS score, Maximum",schizophrenia patients; Day 169 (24 w),14
same,"Change from baseline in total PANSS score, Median",schizophrenia patients; Day 169 (24 w),−7.5
same,"Change from baseline in total PANSS score, Minimum",schizophrenia patients; Day 169 (24 w),−69
same,"Change from baseline in total PANSS score, Mean change",schizophrenia patients; Day 169 (24 w),−11.4
same,"Change from baseline in total PANSS score, Maximum",schizophrenia patients; Final evaluation time point,14
same,"Change from baseline in total PANSS score, Median",schizophrenia patients; Final evaluation time point,−5.0
same,"Change from baseline in total PANSS score, Minimum",schizophrenia patients; Final evaluation time point,−69
same,"Change from baseline in total PANSS score, Mean change",schizophrenia patients; Final evaluation time point,−10.6
same,PANSS score decreased by an average of,schizophrenia patients; day 15 after the start of drug administration (Day 15),3.7 points
same,PANSS score decreased by an average of,schizophrenia patients; day 113 after the start of drug administration (Day 113),12.2 points
same,effect on the symptom of schizophrenia,"schizophrenia patients; schizophrenia patients, 24-week administration",effective in improving the symptom of schizophrenia
same,change in the concentration of pyridoxine (PN),[1]; serum up to 12 hours,No large change
same,time after administration at which the serum concentration of pyridoxamine (unchanged form) peaked,[1]; six people with reduced renal function,2 h
same,blood pentosidine concentration at the end of administration versus Day 1,pentosidine,lower than that on Day 1 in at least seven subjects
